Reference: paper PMC11397024, “Strategic Fluorination to Achieve a Potent, Selective, Metabolically Stable, and Orally Bioavailable Inhibitor of CSNK2” (Molecules, 2024)

What was measured:
Format in all cases: cell-based
[1] = biological target: T1, DAPK2 (Homo sapiens, UniProt Q9UIK4); assay: NanoBRET dose-response DAPK2; settings: highest concentration tested 30 μM
T1 construct: expressed in transfected cells; host or cells: HEK293

[2] = biological target: T2, PHKG1 (Homo sapiens, UniProt Q16816); assay: NanoBRET dose-response PHKG1; settings: highest concentration tested 30 μM
T2 construct: purchased Promega (NanoBRET Target Engagement K192 Kinase Selectivity System)

[3] = biological target: T3, AXL (Homo sapiens, UniProt P30530); assay: NanoBRET K192; settings: HEK293
T3 construct: host or cells: HEK293
In short: (§1)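 HEK293 cells were transfected overnight with NanoLuc–kinase fusion vectors, then treated for 2 h at 37 °C with compound (added as 100 μM working solution) plus K10 tracer. BRET was read at 450/610 nm after substrate and extracellular inhibitor, and fractional occupancy was calculated against no-compound controls.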

[4] = biological target: T4, CDK10 + L2 (Homo sapiens, UniProt Q15131); assay: NanoBRET K192; settings: HEK293
T4 construct: purchased Promega (NanoBRET Target Engagement K192 Kinase Selectivity System)
In short: as §1

[5] = biological target: T5, CDK4 + D3 (Homo sapiens, UniProt P11802); assay: NanoBRET K192; settings: HEK293
T5 construct: purchased Promega (NanoBRET Target Engagement K192 Kinase Selectivity System)
In short: as §1

[6] = biological target: T6, CDKL5 (Homo sapiens, UniProt O76039); assay: NanoBRET K192; settings: HEK293
T6 construct: purchased Promega (NanoBRET Target Engagement K192 Kinase Selectivity System)
In short: as §1

[7] = biological target: T7, CLK2 (Homo sapiens, UniProt P49760); assay: NanoBRET K192
T7 construct: expressed in transfected cells; host or cells: HEK293
In short: as §1

[8] = biological target: T8, CSNK1D (Homo sapiens, UniProt P48730); assay: NanoBRET K192; settings: HEK293
T8 construct: purchased Promega (NanoBRET Target Engagement K192 Kinase Selectivity System)
In short: as §1

[9] = biological target: T9, FLT3 (Homo sapiens, UniProt P36888); assay: NanoBRET K192; settings: HEK293
T9 construct: host or cells: HEK293
In short: as §1

[10] = biological target: T10, INSR (Homo sapiens, UniProt P06213); assay: NanoBRET K192; settings: HEK293
T10 construct: purchased Promega (NanoBRET Target Engagement K192 Kinase Selectivity System)
In short: as §1

[11] = biological target: T11, MAP3K12 (Homo sapiens, UniProt Q12852); assay: NanoBRET K192; settings: HEK293
T11 construct: purchased Promega (NanoBRET Target Engagement K192 Kinase Selectivity System)
In short: as §1

[12] = biological target: T12, MAP3K2 (Homo sapiens, UniProt Q9Y2U5); assay: NanoBRET K192; settings: HEK293
T12 construct: purchased Promega (NanoBRET Target Engagement K192 Kinase Selectivity System)
In short: as §1

[13] = biological target: T13, MAP4K3 (Homo sapiens, UniProt Q8IVH8); assay: NanoBRET K192; settings: HEK293
T13 construct: purchased Promega (NanoBRET Target Engagement K192 Kinase Selectivity System)
In short: as §1

[14] = biological target: T14, MAP4K5 (Homo sapiens, UniProt Q9Y4K4); assay: NanoBRET K192; settings: HEK293
T14 construct: purchased Promega (NanoBRET Target Engagement K192 Kinase Selectivity System)
In short: as §1

[15] = biological target: T15, MELK (Homo sapiens, UniProt Q14680); assay: NanoBRET K192; settings: HEK293
T15 construct: purchased Promega (NanoBRET Target Engagement K192 Kinase Selectivity System)
In short: as §1

[16] = biological target: T16, NIM1K (Homo sapiens, UniProt Q8IY84); assay: NanoBRET K192; settings: HEK293
T16 construct: host or cells: HEK293
In short: as §1

[17] = biological target: T17, PRKAA2 (Homo sapiens, UniProt P54646); assay: NanoBRET K192; settings: HEK293
T17 construct: purchased Promega (NanoBRET Target Engagement K192 Kinase Selectivity System)
In short: as §1

[18] = biological target: T18, RIPK2 (Homo sapiens, UniProt O43353); assay: NanoBRET K192; settings: HEK293
T18 construct: purchased Promega (NanoBRET Target Engagement K192 Kinase Selectivity System)
In short: as §1

[19] = biological target: T19, SGK1 (Homo sapiens, UniProt O00141); assay: NanoBRET K192; settings: HEK293
T19 construct: purchased Promega (NanoBRET Target Engagement K192 Kinase Selectivity System)
In short: as §1

[20] = biological target: T20, STK33 (Homo sapiens, UniProt Q9BYT3); assay: NanoBRET K192; settings: HEK293
T20 construct: purchased Promega (NanoBRET Target Engagement K192 Kinase Selectivity System)
In short: as §1

[21] = biological target: T21, STK38L (Homo sapiens, UniProt Q9Y2H1); assay: NanoBRET K192; settings: HEK293
T21 construct: purchased Promega (NanoBRET Target Engagement K192 Kinase Selectivity System)
In short: as §1

[22] = biological target: T22, TYRO3 (Homo sapiens, UniProt Q06418); assay: NanoBRET K192; settings: HEK293
T22 construct: purchased Promega (NanoBRET Target Engagement K192 Kinase Selectivity System)
In short: as §1

[23] = biological target: T23, ULK3v1 (Homo sapiens, UniProt Q6PHR2); assay: NanoBRET K192; settings: HEK293
T23 construct: host or cells: HEK293
In short: as §1

[24] = biological target: T24, WEE1 (Homo sapiens, UniProt P30291); assay: NanoBRET K192; settings: HEK293
T24 construct: purchased Promega (NanoBRET Target Engagement K192 Kinase Selectivity System)
In short: as §1

T7 sequence (P49760 whole entry): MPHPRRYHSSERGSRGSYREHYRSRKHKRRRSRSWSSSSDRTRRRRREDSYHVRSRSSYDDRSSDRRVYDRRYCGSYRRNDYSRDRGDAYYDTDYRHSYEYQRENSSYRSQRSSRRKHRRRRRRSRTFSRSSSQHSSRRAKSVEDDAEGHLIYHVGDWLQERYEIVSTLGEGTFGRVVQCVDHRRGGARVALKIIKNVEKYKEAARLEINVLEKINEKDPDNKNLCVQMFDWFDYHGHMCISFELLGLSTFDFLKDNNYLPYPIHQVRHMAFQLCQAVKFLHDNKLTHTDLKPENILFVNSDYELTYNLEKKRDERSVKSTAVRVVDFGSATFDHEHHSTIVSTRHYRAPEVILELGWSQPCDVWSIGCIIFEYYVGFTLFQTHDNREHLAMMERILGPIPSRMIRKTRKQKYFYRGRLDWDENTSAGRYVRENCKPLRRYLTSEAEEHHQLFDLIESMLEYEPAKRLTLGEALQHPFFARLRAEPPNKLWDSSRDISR
T17 sequence (P54646 whole entry): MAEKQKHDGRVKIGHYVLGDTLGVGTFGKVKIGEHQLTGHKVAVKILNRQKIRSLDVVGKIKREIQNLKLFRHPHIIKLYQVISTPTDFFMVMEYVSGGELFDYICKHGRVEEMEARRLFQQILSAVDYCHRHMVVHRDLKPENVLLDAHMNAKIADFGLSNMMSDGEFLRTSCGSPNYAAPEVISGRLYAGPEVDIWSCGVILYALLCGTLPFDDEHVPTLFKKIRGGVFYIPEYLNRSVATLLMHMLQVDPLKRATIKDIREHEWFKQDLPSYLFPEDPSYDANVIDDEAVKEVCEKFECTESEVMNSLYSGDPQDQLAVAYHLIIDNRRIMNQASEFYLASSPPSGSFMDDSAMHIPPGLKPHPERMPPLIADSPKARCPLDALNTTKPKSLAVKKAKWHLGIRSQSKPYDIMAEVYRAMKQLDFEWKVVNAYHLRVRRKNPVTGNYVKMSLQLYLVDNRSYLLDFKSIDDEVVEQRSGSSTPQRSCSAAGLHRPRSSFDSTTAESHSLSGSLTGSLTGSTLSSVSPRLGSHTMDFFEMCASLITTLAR
T22 sequence (Q06418 41-890): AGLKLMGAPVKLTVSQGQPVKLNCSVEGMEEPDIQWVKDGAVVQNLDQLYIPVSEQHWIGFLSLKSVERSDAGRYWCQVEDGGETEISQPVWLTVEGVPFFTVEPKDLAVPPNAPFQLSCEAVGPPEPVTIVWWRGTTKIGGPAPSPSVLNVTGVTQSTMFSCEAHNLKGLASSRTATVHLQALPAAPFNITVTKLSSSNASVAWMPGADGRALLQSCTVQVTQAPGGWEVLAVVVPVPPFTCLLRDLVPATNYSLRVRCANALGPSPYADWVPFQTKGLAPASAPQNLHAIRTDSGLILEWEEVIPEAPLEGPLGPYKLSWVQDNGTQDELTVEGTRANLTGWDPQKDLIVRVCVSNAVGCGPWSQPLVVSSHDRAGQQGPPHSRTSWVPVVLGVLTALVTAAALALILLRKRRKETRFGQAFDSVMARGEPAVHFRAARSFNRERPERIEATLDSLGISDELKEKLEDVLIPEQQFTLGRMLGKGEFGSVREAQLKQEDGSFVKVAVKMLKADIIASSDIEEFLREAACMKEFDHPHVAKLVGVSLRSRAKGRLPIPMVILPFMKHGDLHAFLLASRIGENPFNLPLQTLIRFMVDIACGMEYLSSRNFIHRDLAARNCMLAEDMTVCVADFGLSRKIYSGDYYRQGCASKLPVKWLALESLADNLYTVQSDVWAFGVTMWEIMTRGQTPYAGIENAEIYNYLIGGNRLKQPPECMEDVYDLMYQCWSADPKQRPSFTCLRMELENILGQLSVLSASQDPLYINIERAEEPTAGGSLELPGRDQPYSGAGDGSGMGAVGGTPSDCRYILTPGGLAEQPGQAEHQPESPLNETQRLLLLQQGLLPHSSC
T12 sequence (Q9Y2U5 whole entry): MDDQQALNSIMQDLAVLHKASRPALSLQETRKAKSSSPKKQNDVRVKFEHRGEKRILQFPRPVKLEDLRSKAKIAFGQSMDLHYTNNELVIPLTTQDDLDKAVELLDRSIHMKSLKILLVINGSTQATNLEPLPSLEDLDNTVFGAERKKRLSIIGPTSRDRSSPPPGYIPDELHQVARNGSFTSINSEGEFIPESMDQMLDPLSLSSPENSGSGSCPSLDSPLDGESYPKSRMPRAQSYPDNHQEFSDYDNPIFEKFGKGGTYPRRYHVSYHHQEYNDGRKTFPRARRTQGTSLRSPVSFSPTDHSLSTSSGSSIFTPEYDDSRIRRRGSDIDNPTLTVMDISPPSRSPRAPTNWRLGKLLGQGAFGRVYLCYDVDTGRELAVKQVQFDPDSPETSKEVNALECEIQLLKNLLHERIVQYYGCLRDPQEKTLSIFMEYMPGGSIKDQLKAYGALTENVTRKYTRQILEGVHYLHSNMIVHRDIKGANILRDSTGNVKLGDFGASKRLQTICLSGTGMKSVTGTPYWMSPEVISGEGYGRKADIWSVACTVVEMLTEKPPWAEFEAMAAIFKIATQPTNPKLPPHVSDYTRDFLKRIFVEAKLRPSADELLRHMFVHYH
T11 sequence (Q12852 whole entry): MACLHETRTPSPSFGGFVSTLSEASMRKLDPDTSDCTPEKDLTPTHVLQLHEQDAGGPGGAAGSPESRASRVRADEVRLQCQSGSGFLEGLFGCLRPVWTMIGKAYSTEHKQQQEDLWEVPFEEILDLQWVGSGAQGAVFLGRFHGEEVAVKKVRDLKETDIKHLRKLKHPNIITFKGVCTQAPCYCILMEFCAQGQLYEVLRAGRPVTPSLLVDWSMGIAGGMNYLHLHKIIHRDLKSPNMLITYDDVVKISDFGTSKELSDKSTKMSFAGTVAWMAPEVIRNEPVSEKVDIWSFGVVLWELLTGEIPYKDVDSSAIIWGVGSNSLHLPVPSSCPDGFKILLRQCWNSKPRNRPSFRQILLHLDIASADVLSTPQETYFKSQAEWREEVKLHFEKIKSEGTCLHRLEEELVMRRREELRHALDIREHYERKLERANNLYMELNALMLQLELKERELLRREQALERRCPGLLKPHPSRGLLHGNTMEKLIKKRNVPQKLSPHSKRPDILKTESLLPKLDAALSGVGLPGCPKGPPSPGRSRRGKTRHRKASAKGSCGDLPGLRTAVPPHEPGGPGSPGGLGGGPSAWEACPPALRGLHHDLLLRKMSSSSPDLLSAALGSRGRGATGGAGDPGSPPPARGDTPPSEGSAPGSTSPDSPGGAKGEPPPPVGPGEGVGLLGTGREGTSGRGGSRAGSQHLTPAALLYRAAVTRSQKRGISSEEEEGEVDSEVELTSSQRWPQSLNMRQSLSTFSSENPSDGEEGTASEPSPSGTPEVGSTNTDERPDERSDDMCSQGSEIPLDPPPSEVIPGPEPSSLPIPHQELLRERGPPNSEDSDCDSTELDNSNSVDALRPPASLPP
T4 sequence (Q15131 whole entry): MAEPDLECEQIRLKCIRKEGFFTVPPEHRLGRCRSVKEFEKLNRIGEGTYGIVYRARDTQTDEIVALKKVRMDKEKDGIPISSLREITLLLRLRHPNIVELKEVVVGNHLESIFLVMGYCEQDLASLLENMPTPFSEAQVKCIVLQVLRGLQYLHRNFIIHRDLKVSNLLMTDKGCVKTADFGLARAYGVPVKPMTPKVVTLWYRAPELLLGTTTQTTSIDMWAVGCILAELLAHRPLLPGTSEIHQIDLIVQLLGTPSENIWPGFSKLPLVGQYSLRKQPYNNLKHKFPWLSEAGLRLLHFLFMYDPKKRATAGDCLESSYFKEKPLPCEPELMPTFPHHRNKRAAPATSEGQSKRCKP
T4 sequence (Q96S94 whole entry partner): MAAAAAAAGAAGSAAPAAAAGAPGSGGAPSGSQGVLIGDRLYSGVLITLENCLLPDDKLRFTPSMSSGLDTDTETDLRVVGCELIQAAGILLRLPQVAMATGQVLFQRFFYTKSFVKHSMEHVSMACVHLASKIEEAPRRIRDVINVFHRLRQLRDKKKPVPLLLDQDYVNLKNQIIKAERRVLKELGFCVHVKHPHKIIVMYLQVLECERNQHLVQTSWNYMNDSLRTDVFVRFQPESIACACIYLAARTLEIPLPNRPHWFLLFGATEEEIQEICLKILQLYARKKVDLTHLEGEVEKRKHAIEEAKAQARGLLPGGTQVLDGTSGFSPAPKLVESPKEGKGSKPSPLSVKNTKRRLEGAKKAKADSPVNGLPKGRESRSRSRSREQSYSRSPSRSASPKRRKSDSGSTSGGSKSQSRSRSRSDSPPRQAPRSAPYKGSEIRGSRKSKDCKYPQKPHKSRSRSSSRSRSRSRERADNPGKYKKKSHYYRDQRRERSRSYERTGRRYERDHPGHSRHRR
T21 sequence (Q9Y2H1 whole entry): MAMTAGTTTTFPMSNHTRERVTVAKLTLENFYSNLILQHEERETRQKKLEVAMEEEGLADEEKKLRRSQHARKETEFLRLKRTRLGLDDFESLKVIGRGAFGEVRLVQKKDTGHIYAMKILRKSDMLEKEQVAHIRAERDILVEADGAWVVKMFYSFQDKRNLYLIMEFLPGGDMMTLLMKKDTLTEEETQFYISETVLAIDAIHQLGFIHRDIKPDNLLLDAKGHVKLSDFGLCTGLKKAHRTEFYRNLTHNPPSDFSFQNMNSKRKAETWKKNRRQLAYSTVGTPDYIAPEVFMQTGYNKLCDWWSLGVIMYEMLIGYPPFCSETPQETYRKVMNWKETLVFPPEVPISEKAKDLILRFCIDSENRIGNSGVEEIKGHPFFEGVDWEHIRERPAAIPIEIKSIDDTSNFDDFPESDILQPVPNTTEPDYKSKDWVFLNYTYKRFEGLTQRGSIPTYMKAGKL

CCC(=O)Nc1cc(Nc2cc(NC3CC3)n3ncc(C#N)c3n2)c(F)cc1N1CCC[C@H](NC)C1 [Compound 2, (S)-N-(5-((3-cyano-7-(cyclopropylamino)pyrazolo[1,5-a]pyrimidin-5-yl)amino)-4-fluoro-2-(3-(methylamino)piperidin-1-yl)phenyl)propionamide]
IC50 [1]: > 30 µM | IC50 [2]: > 30 µM | receptor occupancy at 10 µM [3]: -9.2% | receptor occupancy at 10 µM [4]: 13.6% | receptor occupancy at 10 µM [5]: 8.5% | receptor occupancy at 10 µM [6]: 17.2% | % occupancy at 10 μM ([7]; CLK2, HEK293): 85% | receptor occupancy at 10 µM ([7]; HEK293, CLK2): 84.8% | receptor occupancy at 10 µM [8]: 9.4% | receptor occupancy at 10 µM [9]: -13.5% | receptor occupancy at 10 µM [10]: 1.2% | receptor occupancy at 10 µM [11]: -0.1% | receptor occupancy at 10 µM [12]: 13.8% | receptor occupancy at 10 µM [13]: 2.9% | receptor occupancy at 10 µM [14]: 8.5% | receptor occupancy at 10 µM [15]: 24.5% | receptor occupancy at 10 µM [16]: -23.7% | receptor occupancy at 10 µM [17]: 0.5% | receptor occupancy at 10 µM [18]: 9.3% | receptor occupancy at 10 µM [19]: 1.5% | receptor occupancy at 10 µM [20]: 26% | receptor occupancy at 10 µM [21]: 4% | receptor occupancy at 10 µM [22]: 3.9% | receptor occupancy at 10 µM [23]: -7.4% | receptor occupancy at 10 µM [24]: 17.8%
